Data on 13 compounds can be found in patent publication US9475812B2, “Pyridonaphthyridine type dual PI3K and mTOR inhibitor and its preparation and use” (Xuanzhu Pharma Co., Ltd., priority 2011, dated 2016).

Like-named read-outs stand apart in the source and are kept apart here.

The nature of data set [1]: Pharmacokinetic assay in rat in vivo. The settings on record: Sprague-Dawley (SD), plasma, male SD rats; for half-life: read-out: T1/2 (half-life) (converted); for bioavailability: PO(4 mg/kg) vs IV, read-out: F(%) absolute bioavailability. The procedure: Male SD rats, each test substance, each administration, three rats were used, having a body weight of 200-250 g.
the present compounds: Compound 16, dissolved with 5% NMP+60% PEG400+35% sterile water for injection, other compounds, dissolved with 5% NMP+40% PEG400+55% sterile water for injection.
Blood collection: each of about 100 μL whole blood were collected at 0 h before administration (pre-administration), and at 0.083 h, 0.25 h, 0.5 h, 1 h, 2 h, 4 h, 6 h, 8 h and 24 h after administration. The collected blood samples were centrifuged at 8000 rpm in a high-speed centrifuge for 6 mins to separate the blood plasm. The separated plasm was freezing-preserved at −80° C. in a refrigerator.
Plasm sample analysis: The plasm sample was treated by a liquid-liquid extraction. 20 μL of the plasm was taken, subjected to a vortex at 1500 rpm for 10 mins, and then centrifuged at 12000 rpm for 5 mins. 400 μL of the supernatant was taken and blowed to dryness in the nitrogen gas. The resulting substance is re-dissolved in 200 μL methanol:water (1:1, V/V), and the solution was analyzed with LC-MS/MS.

A further data set has as its target mTOR (Homo sapiens, UniProt P42345). The experiment in a line: mTOR enzymology assay (in vitro enzyme inhibition, ULight-4E-BP1 peptide, Lance signal). It is filed as biochemical. The settings on record: mTOR 2.5 nM, ULight-4E-BP1 peptide 50 nM, ATP 10.8 uM, 60 mins. How it is done:
mTOR Enzymology Assay Procedures
1. The agent's final concentrations and the compound solution preparation
1.1 mTOR (2.5 nM) kinase solution, substrate ULight-4E-BP1 peptide 50 nM, ATP 10.8 uM;
(§1) 1.2 4 folds kinase solution, 2 folds substrate and ATP solution;
(§2) 1.3 test compound 1 mM stock solution (final concentration 100 folds of DMSO solution).
(§3) 2.1 test compound 1 mM, diluted with DMSO 4 folds gradient, and then diluted with kinase buffer 25 folds;
(§4) 2.2 To each well in a 384-well plate was added 2.5 μL series diluted compounds;
2.3 To each well was added 2.5 μL 4 fold kinase solution;
(§5) 2.4 To each well was added 2.5 μL substrate/ATP solution;
(§6) 2.5 incubated for 60 mins;
2.6 Envision data reading Lance signal (665 nM).
The inhibition ratio %=(Lance signal−min)/(max−min)×100
wherein “max” is the DMSO control containing the enzyme but not containing the compound; “min” is the control without the kinase.
Input the data into GraphPad Prism5.0 to plot a curve and obtain IC50.

The target of the next data set is PI3Kα (Homo sapiens, UniProt P42336). The experiment in a line: PI3Kα enzymology assay (in vitro enzyme inhibition). It is filed as biochemical. The settings on record: PI3Kα 1.65 nM, PIP2 50 μM, ATP 25 μM, 60 mins. The procedure:
PI3Kα Enzymology Assay Procedures
1. The agent's final concentrations and the compound formulation
1.1 PI3Kα (1.65 nM) kinase solution, substrate PIP2 50 μM, ATP 25 μM;
as §1, §2, §3, §4
2.3 To each well was added 2.5 μL 4 folds kinase solution;
as §5, §6
2.6 Envision data reading: Lance signal ([…]).
The inhibition ratio %=(sample RLU−min)/(max−min)×100
wherein “max” is the control without the kinase; “min” is the DMSO control containing the enzyme but not containing the compound.
Data were input into GraphPad Prism 5.0 to plot a curve and obtain IC50.

The test system of a further data set is U87MG cells. The experiment in a line: In vitro cellular inhibitory activity, XTT cell viability, U87MG. The settings on record: Homo sapiens, U-87 MG, 72 hours. It is filed as cell-based. How it is done:
(§7) 1. Formulating the agents and the compounds: Formulating the PBS, the XTT working liquor, the paclitaxel stock solution and gradient dilute solutions thereof, and the stock solution of test compound and gradient dilute solutions of test compounds.
(§8) 2. Culturing cells: Thawing cells, Passing cells, Freezing and preserving cells.
(§9) Preparing the cell suspension;
(§10) The cell suspension was added to a 96-well plate, 100 μL per well;
(§11) The plate was placed in the incubator and incubated at 37° C. under 5% CO2 overnight.
(§12) Drugs were added to the cell culture plate. The plate was placed in the CO2 incubator and incubated for 72 hours.
(§13) 5. Testing the cell viability with the XTT method
(§14) The XTT working solution was added to the plate. The plate was placed in the CO2 incubator for 2 hours. Then the plate was placed in a microplate reader to read the absorbance at 450 nm.
(§15) 1) % inhibition=(Absorbance (Vehicle)−Absorbance(Compound))/(Absorbance(Vehicle)−Absorbance(positive control)×100%;
(§16) 2) Data were input into GraphPad Prism 5.0 to plot a curve and obtain IC50.
In general terms: Tetrazolium dyes change colour on reduction, which living cells bring about.

In a further data set the test system is A549 cells. The experiment in a line: In vitro cellular inhibitory activity, XTT cell viability, A549. It is filed as cell-based. The settings on record: Homo sapiens, 72 hours. The procedure:
as §7, §8, §9, §10, §11, §12, §13, §14, §15, §16

Where [2] appears, read: IV(2 mg/kg), dosage in Table 3 (Compound 16: 0.45 mg/kg).

Chain of PI3Kα (P42336 whole entry): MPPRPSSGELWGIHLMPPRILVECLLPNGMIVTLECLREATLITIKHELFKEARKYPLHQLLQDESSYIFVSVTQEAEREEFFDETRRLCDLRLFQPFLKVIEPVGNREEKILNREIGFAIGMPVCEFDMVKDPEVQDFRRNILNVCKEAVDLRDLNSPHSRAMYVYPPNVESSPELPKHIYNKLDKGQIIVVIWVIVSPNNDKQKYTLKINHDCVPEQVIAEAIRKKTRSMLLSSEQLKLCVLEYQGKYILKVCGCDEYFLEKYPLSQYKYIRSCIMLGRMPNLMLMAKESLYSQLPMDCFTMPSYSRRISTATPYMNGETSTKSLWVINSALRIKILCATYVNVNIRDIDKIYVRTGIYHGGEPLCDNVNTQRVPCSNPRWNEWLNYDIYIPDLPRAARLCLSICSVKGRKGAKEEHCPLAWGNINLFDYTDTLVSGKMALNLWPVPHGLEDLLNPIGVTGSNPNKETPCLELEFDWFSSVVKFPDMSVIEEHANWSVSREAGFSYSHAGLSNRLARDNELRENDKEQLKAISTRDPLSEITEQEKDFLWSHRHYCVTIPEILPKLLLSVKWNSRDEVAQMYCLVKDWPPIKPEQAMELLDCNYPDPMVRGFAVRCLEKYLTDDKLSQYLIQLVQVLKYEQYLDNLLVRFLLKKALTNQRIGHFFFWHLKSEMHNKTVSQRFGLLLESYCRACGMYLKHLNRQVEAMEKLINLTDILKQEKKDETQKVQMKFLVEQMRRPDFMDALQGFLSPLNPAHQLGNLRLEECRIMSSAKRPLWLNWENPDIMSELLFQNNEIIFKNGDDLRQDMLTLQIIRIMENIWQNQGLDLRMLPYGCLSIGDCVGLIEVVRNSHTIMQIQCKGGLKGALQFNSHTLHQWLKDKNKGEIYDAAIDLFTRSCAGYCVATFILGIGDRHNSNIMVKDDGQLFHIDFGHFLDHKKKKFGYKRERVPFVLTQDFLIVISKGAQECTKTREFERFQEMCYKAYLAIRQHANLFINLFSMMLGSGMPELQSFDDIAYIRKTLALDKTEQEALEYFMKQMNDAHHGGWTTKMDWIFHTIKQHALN
Chain of PI3Kα (P27986 whole entry partner): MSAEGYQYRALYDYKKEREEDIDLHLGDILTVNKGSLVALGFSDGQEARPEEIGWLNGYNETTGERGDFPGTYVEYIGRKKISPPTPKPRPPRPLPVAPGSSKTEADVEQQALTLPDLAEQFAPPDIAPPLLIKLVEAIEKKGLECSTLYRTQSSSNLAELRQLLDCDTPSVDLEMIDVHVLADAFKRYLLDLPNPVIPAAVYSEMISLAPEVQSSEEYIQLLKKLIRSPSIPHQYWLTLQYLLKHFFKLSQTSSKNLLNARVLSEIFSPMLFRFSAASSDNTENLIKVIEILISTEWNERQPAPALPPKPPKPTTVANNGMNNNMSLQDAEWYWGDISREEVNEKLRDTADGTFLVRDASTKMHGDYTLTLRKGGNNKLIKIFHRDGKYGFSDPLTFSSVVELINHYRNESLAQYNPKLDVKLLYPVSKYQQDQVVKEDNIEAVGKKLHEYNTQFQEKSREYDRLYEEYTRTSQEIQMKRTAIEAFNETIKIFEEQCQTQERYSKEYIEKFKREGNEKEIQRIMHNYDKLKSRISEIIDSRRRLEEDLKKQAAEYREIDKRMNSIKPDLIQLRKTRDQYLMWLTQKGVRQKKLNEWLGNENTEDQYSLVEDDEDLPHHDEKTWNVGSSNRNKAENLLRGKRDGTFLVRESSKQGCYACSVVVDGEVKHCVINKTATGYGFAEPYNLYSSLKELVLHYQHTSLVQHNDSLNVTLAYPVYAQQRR

The AUC(0-t) is exposure summed from dosing to a finite time, without extrapolation to infinity. The bioavailability is the share of a dose that reaches the circulation, judged against a reference dose that is usually intravenous. The IC50 is the concentration needed to halve the response being measured. `Nc1ccc(-c2ccc3ncc4ccc(=O)n(-c5cccc(C(F)(F)F)c5)c4c3n2)cn1` [Compound 1, 2-(6-aminopyridin-3-yl)-10-(3-(trifluoromethyl)phenyl)pyrido[3,2-c][1,5]naphthyridin-9(10H)-one]: the AUC(0-t) is 1310 ng·h/mL in data set [1] (setting [2]) and 1030 ng·h/mL in data set [1] (PO(4 mg/kg), intragastric). Besides, the half-life in data set [1] (setting [2]) was 1.79 h; in data set [1] (PO(4 mg/kg), intragastric), 2.78 h. For the same compound, the bioavailability in data set [1] is 43.7%. For the same compound, the IC50 at mTOR was found to be 0.87 nM; at PI3Kα, 3.2 nM; in the data set on U87MG cells, 8.9 nM; in the data set on A549 cells it was 11.9 nM.
Turning to `CC(C)(C#N)c1ccc(-n2c(=O)ccc3cnc4ccc(-c5ccc(N)nc5)nc4c32)cc1` [Compound 7, 2-(4-(2-(6-aminopyridin-3-yl)-9-oxopyrido[3,2-c][1,5]naphthyridin-10(9H)-yl)phenyl)-2-methylpropanenitrile], in the data set on U87MG cells, 29.3 nM corresponded to half-maximal inhibition (IC50).
Take `Nc1ncc(-c2ccc3ncc4ccc(=O)n(-c5cccc(C(F)(F)F)c5)c4c3n2)cn1` [Compound 13, 2-(2-aminopyrimidin-5-yl)-10-(3-(trifluoromethyl)phenyl)pyrido[3,2-c][1,5]naphthyridin-9(10H)-one]: the AUC(0-t) came to 711 ng·h/mL in data set [1] (setting [2]) and 707 ng·h/mL in data set [1] (PO(4 mg/kg), intragastric). Moreover, the half-life was 0.62 h in data set [1] (setting [2]) and 1.44 h in data set [1] (PO(4 mg/kg), intragastric). Further, the bioavailability in data set [1] came to 49%. The IC50 on mTOR worked out at 0.47 nM; at PI3Kα it was 2.4 nM; with U87MG cells, 26.4 nM.
Consider `COc1ncc(-c2ccc3ncc4ccc(=O)n(-c5cccc(C(F)(F)F)c5)c4c3n2)cn1` [Compound 14, 2-(2-methoxypyrimidin-5-yl)-10-(3-(trifluoromethyl)phenyl)pyrido[3,2-c][1,5]naphthyridin-9(10H)-one], for which the bioavailability in data set [1] was found to be 42.3%. In data set [1] (PO(4 mg/kg), intragastric), the AUC(0-t) was 445 ng·h/mL and the half-life was 3.49 h. Besides, 4.4 nM corresponded to half-maximal inhibition on mTOR (IC50). For the same compound, half-maximal inhibition against PI3Kα (IC50) required 8.8 nM.
On to `CC(=O)Nc1ccc(-c2ccc3ncc4ccc(=O)n(-c5cccc(C(F)(F)F)c5)c4c3n2)cn1` [Compound 15, N-(5-(9-oxo-10-(3-(trifluoromethyl)phenyl)-9,10-dihydropyrido[3,2-c][1,5]naphthyridin-2-yl)pyridin-2-yl)acetamide], for which the AUC(0-t) in data set [1] (setting [2]) stood at 441 ng·h/mL; in data set [1] (PO(4 mg/kg), intragastric) it was 550 ng·h/mL. Moreover, the half-life in data set [1] (setting [2]) was 0.71 h; in data set [1] (PO(4 mg/kg), intragastric), 2.36 h. Also, in data set [1], the bioavailability was found to be 65%. For the same compound, the IC50 at mTOR amounted to 3 nM; against PI3Kα, 6.1 nM; in the data set with U87MG cells, 12.7 nM; with A549 cells, 20.2 nM.
Turning to `N#Cc1ccc(-c2ccc3ncc4ccc(=O)n(-c5cccc(C(F)(F)F)c5)c4c3n2)cn1` [Compound 16, 5-(9-oxo-10-(3-(trifluoromethyl)phenyl)-9,10-dihydropyrido[3,2-c][1,5]naphthyridin-2-yl)-2-cyanopyridine], the AUC(0-t) in data set [1] (setting [2]) was 195 ng·h/mL; in data set [1] (PO(4 mg/kg), intragastric) it was 410 ng·h/mL. For the same compound, the half-life in data set [1] (setting [2]) was 1.52 h; in data set [1] (PO(4 mg/kg), intragastric), 1.67 h. Besides, in data set [1], the bioavailability came to 23%. The figures for the IC50 against mTOR and on PI3Kα were 8.7 nM and 58 nM, respectively.
As for `O=c1ccc2cnc3ccc(-c4c[nH]c5ncccc45)nc3c2n1-c1cccc(C(F)(F)F)c1` [Compound 17, 2-(1H-pyrrolo[2,3-b]pyridin-3-yl)-10-(3-(trifluoromethyl)phenyl)pyrido[3,2-c][1,5]naphthyridin-9(10H)-one], the AUC(0-t) is 723 ng·h/mL in data set [1] (setting [2]) and 212 ng·h/mL in data set [1] (PO(4 mg/kg), intragastric). Besides, the half-life is 0.61 h in data set [1] (setting [2]) and 5.68 h in data set [1] (PO(4 mg/kg), intragastric). Moreover, in data set [1], the bioavailability stood at 20.8%. Also, the IC50 against mTOR turned out to be 5.3 nM; on PI3Kα, 45 nM.
Take `O=c1ccc2cnc3ccc(-c4ccc(CO)nc4)nc3c2n1-c1cccc(C(F)(F)F)c1` [Compound 18, 2-(6-(hydroxymethyl)pyridin-3-yl)-10-(3-(trifluoromethyl)phenyl)pyrido[3,2-c][1,5]naphthyridin-9(10H)-one]: the IC50 on mTOR is 2.6 nM; against PI3Kα, 3.6 nM.
On to `CN1CCN(c2ccc(-c3ccc4ncc5ccc(=O)n(-c6cccc(C(F)(F)F)c6)c5c4n3)cn2)CC1` [Compound 19, 2-(6-(4-methylpiperazin-1-yl)pyridin-3-yl)-10-(3-(trifluoromethyl)phenyl)pyrido[3,2-c][1,5]naphthyridin-9(10H)-one], for which the IC50 against mTOR was 2.3 nM; against PI3Kα, 158 nM.
On to `O=c1ccc2cnc3ccc(-c4ccc(-n5cccn5)nc4)nc3c2n1-c1cccc(C(F)(F)F)c1` [Compound 20, 2-(6-(1H-pyrazol-1-yl)pyridin-3-yl)-10-(3-(trifluoromethyl)phenyl)pyrido[3,2-c][1,5]naphthyridin-9(10H)-one], for which the IC50 against mTOR is 6 nM; on PI3Kα, 104 nM.
As for `CSc1ccc(-c2ccc3ncc4ccc(=O)n(-c5cccc(C(F)(F)F)c5)c4c3n2)cn1` [Compound 38, 2-(6-(methylthio)pyridin-3-yl)-10-(3-(trifluoromethyl)phenyl)pyrido[3,2-c][1,5]naphthyridin-9(10H)-one], the IC50 on mTOR was 5 nM; against PI3Kα, 17 nM.
For `O=c1ccc2cnc3ccc(-c4cnc5[nH]ccc5c4)nc3c2n1-c1cccc(C(F)(F)F)c1` [Compound 39, 2-(1H-pyrrolo[2,3-b]pyridin-5-yl)-10-(3-(trifluoromethyl)phenyl)pyrido[3,2-c][1,5]naphthyridin-9(10H)-one], the IC50 at mTOR worked out at 0.89 nM; on PI3Kα it was 2.5 nM; with U87MG cells it was 8.4 nM; with A549 cells it was 6.8 nM.
For the compound `Nc1ccc(-c2ccc3ncc4ccc(=O)n(-c5cccc(C(F)(F)F)c5)c4c3c2)cn1` [Torin-2, 9-(6-Aminopyridin-3-yl)-1-(3-(trifluoromethyl)phenyl)benzo[h][1,6]naphthyridin-2(1H)-one, reference compound], the AUC(0-t) in data set [1] (setting [2]) was determined as 259 ng·h/mL; in data set [1] (PO(4 mg/kg), intragastric) it was 104 ng·h/mL. The bioavailability in data set [1] stood at 22.6%. In addition, the IC50 in the data set on U87MG cells was determined as 12.4 nM; in the data set on A549 cells it was 14.7 nM.
